Measured values from US20230355605A1, “DRUG FOR ENHANCING FIBRINOLYTIC SYSTEM, AND USE THEREFOR” (priority 2020, published 2023).

Assays:
human-derived PAI-1 = human-derived PAI-1 (Homo sapiens, UniProt P05121); assay: Human plasma clot fibrinolysis test (PAI-1 inhibitory effect); format: biochemical; settings: human plasma clot with t-PA and human-derived PAI-1
Description: A human plasma clot fibrinolysis test was performed to evaluate the PAI-1 inhibitory effect of the present compound.
Specifically, human-derived PAI-1 and the present compound were added to a reaction mixture containing t-PA, which dissolves blood clots caused by addition of thrombin to normal human pooled plasma, and the inhibition of the effect of t-PA by PAI-1 (PAI-1 effect) and the removal of the PAI-1 effect by the present compound (PAI-1 inhibition) (fibrinolysis enhancement) were evaluated.

[1] = system: patients with COVID-19 pneumonia (mild to moderate); assay: Effectiveness study for COVID-19 pneumonia (exploratory early phase II study); format: in vivo, human
Description: The effect of the present compound to prevent the aggravation of COVID-19 pneumonia and its safety were explored.
Occurrence of transition to oxygen supply treatment under mechanical ventilation after the oral administration of the present compound (occurrence of deterioration of oxygenation)
• (a) Survival for 28 days from the start of administration of the present compound • (b) Duration of hospitalization after the start of administration of the present compound • (c) Number of days required for oxygen administration after the start of administration of the present compound (d) Changes in the proportion of lesions in the lung field on chest CT images before and after the administration of the present compound
Occurrence of adverse events after the start of administration of the present compound until the end of observation

hERG current = molecular target: T1, hERG current (Homo sapiens, UniProt Q12809); assay: Effect on hERG current (whole-cell patch clamp); format: cell-based; settings: 0.1, 1, 10 µM; up to 10 µM; 10 minutes after application; hERG-expressing HEK293 cells
T1 construct: expressed in transfected cells; host or cells: HEK293
T1 sequence (Q12809 whole entry): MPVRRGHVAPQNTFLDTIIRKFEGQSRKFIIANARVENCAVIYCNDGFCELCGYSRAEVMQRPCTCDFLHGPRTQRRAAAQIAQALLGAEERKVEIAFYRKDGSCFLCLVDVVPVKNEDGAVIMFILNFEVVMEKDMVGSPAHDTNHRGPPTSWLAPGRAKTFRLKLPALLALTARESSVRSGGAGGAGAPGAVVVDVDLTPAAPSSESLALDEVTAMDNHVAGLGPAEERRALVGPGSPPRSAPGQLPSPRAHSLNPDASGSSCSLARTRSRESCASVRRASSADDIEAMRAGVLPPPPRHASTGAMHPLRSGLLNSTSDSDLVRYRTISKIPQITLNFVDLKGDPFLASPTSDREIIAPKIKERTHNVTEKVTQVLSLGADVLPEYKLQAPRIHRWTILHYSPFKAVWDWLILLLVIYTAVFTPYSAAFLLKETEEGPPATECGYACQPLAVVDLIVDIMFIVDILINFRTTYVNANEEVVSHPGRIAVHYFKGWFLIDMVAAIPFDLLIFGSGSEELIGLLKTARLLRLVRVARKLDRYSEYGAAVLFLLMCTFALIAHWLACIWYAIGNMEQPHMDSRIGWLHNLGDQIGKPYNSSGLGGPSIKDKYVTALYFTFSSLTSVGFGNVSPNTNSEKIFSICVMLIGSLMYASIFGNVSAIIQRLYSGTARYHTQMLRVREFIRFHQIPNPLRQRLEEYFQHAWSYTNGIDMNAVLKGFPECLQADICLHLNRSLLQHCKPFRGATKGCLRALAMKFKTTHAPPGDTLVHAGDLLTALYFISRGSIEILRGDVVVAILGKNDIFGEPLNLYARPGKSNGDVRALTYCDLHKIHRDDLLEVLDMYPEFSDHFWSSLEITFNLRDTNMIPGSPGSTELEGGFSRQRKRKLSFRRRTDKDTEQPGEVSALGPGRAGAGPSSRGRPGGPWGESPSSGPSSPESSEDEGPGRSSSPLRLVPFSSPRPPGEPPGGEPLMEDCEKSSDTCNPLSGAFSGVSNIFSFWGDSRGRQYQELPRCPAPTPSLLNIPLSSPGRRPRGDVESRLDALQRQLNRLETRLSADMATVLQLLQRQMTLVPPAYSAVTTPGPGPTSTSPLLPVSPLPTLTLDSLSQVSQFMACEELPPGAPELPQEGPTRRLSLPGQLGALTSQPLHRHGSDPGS
Description: The effect of the present compound on hERG current was examined by a whole-cell patch clamp method using HEK293 cells transfected with the human ether-a-go-go-related gene (hERG). This study was performed as part of a safety pharmacology core battery study to predict the risk of a drug-induced proarrhythmic effect, in particular, prolongation of QT interval on an electrocardiogram, in an in vitro study. The concentration of the present compound was set to 0.1, 1, and 10 µM, and the tail peak current suppression rate (%) 10 minutes after application relative to that before application was used as an index of the effect on hERG current. As a vehicle control, 0.1 v/v% DMSO was used, and as a positive control, 0.1 µmol/L of E-4031 was used.

rats = assay: Reproductive and developmental toxicity study (fertility and early embryogenesis); format: in vivo, rat; settings: oral, male and female rats
Description: The effect of oral administration of the present compound on fertility and early embryogenesis up to implantation was examined using rats. Specifically, the present compound was orally administered to male and female rats for 2 weeks before mating, during mating, until the day before necropsy for the males, and until day 7 of gestation for the females, and the effect on fertility and early embryogenesis of the parents was examined. During the study period, the general conditions, body weights, and food consumption of all of the animals were observed and measured, and a fertility test was performed for the males and females. For the females, an estrous cycle test was performed, and a Cesarean section test was performed at day 13 of gestation. In the females, necropsy was performed at the time of Cesarean section, and in the males, necropsy was performed after completion of the Cesarean section of females.

[2] = 120 to 180 mg/day oral, 14 days
[3] = after the start of administration, excluding undescribed and discontinued cases
[4] = start of administration to end of observation, 26 patients

human-derived PAI-1, sequence (P05121 24-402): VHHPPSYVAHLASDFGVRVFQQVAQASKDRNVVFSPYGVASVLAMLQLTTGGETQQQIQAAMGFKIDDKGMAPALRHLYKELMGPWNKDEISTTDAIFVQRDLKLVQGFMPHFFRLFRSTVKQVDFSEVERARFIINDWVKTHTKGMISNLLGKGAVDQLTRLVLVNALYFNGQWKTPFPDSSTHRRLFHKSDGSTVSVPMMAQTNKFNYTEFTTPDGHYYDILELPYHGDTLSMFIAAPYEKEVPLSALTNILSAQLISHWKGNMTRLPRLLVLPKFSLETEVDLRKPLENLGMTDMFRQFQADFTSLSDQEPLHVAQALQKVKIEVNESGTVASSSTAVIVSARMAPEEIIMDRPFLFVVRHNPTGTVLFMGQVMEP

SMILES: O=C(Nc1ccc(Cl)cc1C(=O)[O-])c1cccc(-c2cccc3cccnc23)c1.[Na+] [present compound, sodium 5-chloro-2-({ [3-(quinolin-8-yl)phenyl]carbonyl}amino)benzoate]
- concentration with PAI-1 inhibitory effect (fibrinolysis enhancement effect) (human-derived PAI-1): ≥ 10 µM
- deterioration of oxygenation requiring mechanical ventilation [1, 2]: no cases
- number of days required for oxygen administration after the start of administration [1, 2]: gradually decreased
- survival for 28 days from the start of administration [1, 2]: all cases survived
- adverse events in patients concomitantly treated with Remdesivir, Avigan, inhaled steroid or antiplatelet agent ([1]; Remdesivir 8, Avigan 5, inhaled steroid 22, antiplatelet agent 5 cases): no adverse events requiring treatment
- Number of cases with duration of hospitalization 8 to 12 days [1, 3]: 5
- Number of cases with duration of hospitalization 13 to 17 days [1, 3]: 12
- Number of cases with duration of hospitalization 18 to 22 days [1, 3]: 4
- number of cases, oxygen dosage 0 L/day ([1]; day 1): 3
- number of cases, oxygen dosage 2 or less L/day ([1]; day 1): 12
- number of cases, oxygen dosage 5 or more L/day ([1]; day 1): 3
- number of cases, oxygen dosage More than 2 less than 5 L/day ([1]; day 1): 5
- number of cases, oxygen dosage 0 L/day ([1]; day 2): 3
- number of cases, oxygen dosage 2 or less L/day ([1]; day 2): 12
- number of cases, oxygen dosage 5 or more L/day ([1]; day 2): 2
- number of cases, oxygen dosage More than 2 less than 5 L/day ([1]; day 2): 6
- number of cases, oxygen dosage 0 L/day ([1]; day 3): 4
- number of cases, oxygen dosage 2 or less L/day ([1]; day 3): 13
- number of cases, oxygen dosage 5 or more L/day ([1]; day 3): 0
- number of cases, oxygen dosage More than 2 less than 5 L/day ([1]; day 3): 6
- number of cases, oxygen dosage 0 L/day ([1]; day 4): 7
- number of cases, oxygen dosage 2 or less L/day ([1]; day 4): 11
- number of cases, oxygen dosage 5 or more L/day ([1]; day 4): 0
- number of cases, oxygen dosage More than 2 less than 5 L/day ([1]; day 4): 5
- number of cases, oxygen dosage 0 L/day ([1]; day 5): 7
- number of cases, oxygen dosage 2 or less L/day ([1]; day 5): 12
- number of cases, oxygen dosage 5 or more L/day ([1]; day 5): 0
- number of cases, oxygen dosage More than 2 less than 5 L/day ([1]; day 5): 4
- number of cases, oxygen dosage 0 L/day ([1]; day 6): 10
- number of cases, oxygen dosage 2 or less L/day ([1]; day 6): 9
- number of cases, oxygen dosage 5 or more L/day ([1]; day 6): 0
- number of cases, oxygen dosage More than 2 less than 5 L/day ([1]; day 6): 4
- number of cases, oxygen dosage 0 L/day ([1]; day 7): 10
- number of cases, oxygen dosage 2 or less L/day ([1]; day 7): 9
- number of cases, oxygen dosage 5 or more L/day ([1]; day 7): 0
- number of cases, oxygen dosage More than 2 less than 5 L/day ([1]; day 7): 4
- number of cases, oxygen dosage 0 L/day ([1]; day 8): 12
- number of cases, oxygen dosage 2 or less L/day ([1]; day 8): 10
- number of cases, oxygen dosage 5 or more L/day ([1]; day 8): 0
- number of cases, oxygen dosage More than 2 less than 5 L/day ([1]; day 8): 1
- number of cases, oxygen dosage 0 L/day ([1]; day 9): 13
- number of cases, oxygen dosage 2 or less L/day ([1]; day 9): 9
- number of cases, oxygen dosage 5 or more L/day ([1]; day 9): 0
- number of cases, oxygen dosage More than 2 less than 5 L/day ([1]; day 9): 1
- number of cases, oxygen dosage 0 L/day ([1]; day 10): 17
- number of cases, oxygen dosage 2 or less L/day ([1]; day 10): 6
- number of cases, oxygen dosage 5 or more L/day ([1]; day 10): 0
- number of cases, oxygen dosage More than 2 less than 5 L/day ([1]; day 10): 0
- number of cases, oxygen dosage 0 L/day ([1]; day 11): 18
- number of cases, oxygen dosage 2 or less L/day ([1]; day 11): 5
- number of cases, oxygen dosage 5 or more L/day ([1]; day 11): 0
- number of cases, oxygen dosage More than 2 less than 5 L/day ([1]; day 11): 0
- number of cases, oxygen dosage 0 L/day ([1]; day 12): 20
- number of cases, oxygen dosage 2 or less L/day ([1]; day 12): 3
- number of cases, oxygen dosage 5 or more L/day ([1]; day 12): 0
- number of cases, oxygen dosage More than 2 less than 5 L/day ([1]; day 12): 0
- number of cases, oxygen dosage 0 L/day ([1]; day 13): 21
- number of cases, oxygen dosage 2 or less L/day ([1]; day 13): 2
- number of cases, oxygen dosage 5 or more L/day ([1]; day 13): 0
- number of cases, oxygen dosage More than 2 less than 5 L/day ([1]; day 13): 0
- number of cases, oxygen dosage 0 L/day ([1]; day 14): 22
- number of cases, oxygen dosage 2 or less L/day ([1]; day 14): 1
- number of cases, oxygen dosage 5 or more L/day ([1]; day 14): 0
- number of cases, oxygen dosage More than 2 less than 5 L/day ([1]; day 14): 0
- number of cases with reduced proportion of lesions in the lung field on chest CT images ([1]; out of 18 cases, administration for 14 days): 13 cases
- adverse events related to the present compound and requiring treatment ([1]; start of administration to end of observation): no adverse events that were related to the present compound and that required treatment
- number of adverse events [1, 4]: 33
- number of patients with adverse events [1, 4]: 17 patients
- suppressive effect on hERG current (tail peak current suppression rate) (hERG current): no suppressive effect
- no-observed-adverse-effect level in the parent animals, including fertility (rats): 1000 mg/kg/day
- no-observed-adverse-effect level with respect to early embryogenesis (rats): 1000 mg/kg/day
